Data: patent US20130041005A1, “PHARMACEUTICAL COMPOSITIONS COMPRISING NEUROPILIN INHIBITORS, AND THEIR USE FOR THE PREVENTION AND/OR TREATMENT OF ANGIOGENIC DISORDERS AND CANCERS” (TRAGEX PHARMA, priority 2011, published 2013)

Columns and labels:
NRP-2 = target: T1, NRP-2 (Homo sapiens, UniProt O60462); assay: ELISA inhibition of VEGF binding to NRP-2
T1 construct: fused on or other part: Possibly an Fc or His tag on the purchased soluble ectodomain
Description: Elisa test was performed covering a 96-well microplate (BD Biosciences, France, cat no 353046) surface with 100 μl of 1×PBS, pH 7.4 with Ca^2+ and Mg^2+, (Lonza, France, cat no 17-513F/12) solution containing 0.2 μg/ml of VEGF-R1 (R&D Systems, UK, cat no 321-FL-050/CF) or 2 μg/ml of NRP-1 (R&D Systems, UK, cat no 3870-N1-025) or NRP-2 (R&D Systems, UK, cat no 321-FL). The plate was sealed and incubated overnight at 4° C. After 3 washes with 200 μl of 1×PBS 0.5% (v/v) Tween 20 (Sigma, France, cat no 34078) (Buffer A), the plate was blocked by adding 200 μl of 1×PBS with 0.5% (w/v) BSA (Eurobio, France, cat no GAUBSA01-65) and agitated at 37° C. for 2 h. After washing five times with Buffer A, 50 μl/well of the compounds of the invention at 10 μM were added for the specific signal and 50 μl/well for the non-specific and max binding signal and incubated at 37° C. for 1 hour, shacking. […] Luminescence was quantified with an EnVision™ 2101 Multilabel reader (Perkin Elmer, USA) and the data analyzed by Wallac Envision manager software. […] Non-specific binding is defined as the signal measured in the absence of receptor coated on the microplate. The specific binding was calculated as the difference between total binding and non-specific binding. The percentage of inhibition was calculated as following: […]

HeLa = assay: WST-1 proliferation assay, HeLa; type: cell-based; conditions: Homo sapiens

T1 sequence (O60462 whole entry, the tested form may be a part): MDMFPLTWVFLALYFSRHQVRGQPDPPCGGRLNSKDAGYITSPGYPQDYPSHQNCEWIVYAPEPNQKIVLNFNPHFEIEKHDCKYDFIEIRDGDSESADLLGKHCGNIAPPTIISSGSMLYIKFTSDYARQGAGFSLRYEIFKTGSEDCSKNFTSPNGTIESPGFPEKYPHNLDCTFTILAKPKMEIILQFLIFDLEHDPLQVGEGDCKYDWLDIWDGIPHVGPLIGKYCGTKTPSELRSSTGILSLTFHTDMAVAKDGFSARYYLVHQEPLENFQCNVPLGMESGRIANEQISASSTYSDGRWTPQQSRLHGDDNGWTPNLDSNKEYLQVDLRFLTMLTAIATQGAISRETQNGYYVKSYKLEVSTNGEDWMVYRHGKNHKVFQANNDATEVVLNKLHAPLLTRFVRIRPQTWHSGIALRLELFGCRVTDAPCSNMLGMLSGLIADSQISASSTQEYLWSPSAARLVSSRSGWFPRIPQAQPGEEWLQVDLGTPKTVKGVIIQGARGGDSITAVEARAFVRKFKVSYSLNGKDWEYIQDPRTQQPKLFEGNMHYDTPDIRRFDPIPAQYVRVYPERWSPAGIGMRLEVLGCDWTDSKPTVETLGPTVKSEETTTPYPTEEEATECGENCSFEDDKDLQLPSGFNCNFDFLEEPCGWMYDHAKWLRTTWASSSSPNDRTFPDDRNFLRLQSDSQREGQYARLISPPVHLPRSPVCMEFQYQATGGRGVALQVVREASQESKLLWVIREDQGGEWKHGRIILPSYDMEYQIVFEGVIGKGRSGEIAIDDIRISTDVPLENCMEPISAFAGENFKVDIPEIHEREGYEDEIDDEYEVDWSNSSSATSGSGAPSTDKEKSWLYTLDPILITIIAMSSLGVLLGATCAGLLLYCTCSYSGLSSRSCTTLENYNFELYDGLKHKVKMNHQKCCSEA

Row | SMILES | IC50 (NRP-2) [µM] | inhibition at 0.05 µM (HeLa) [%]
1 | Cc1ccc(-c2nc3ccccc3[nH]2)cc1NC(=S)NC(=O)c1ccc2c(c1)OCCO2 [Compound 1, N-[5-(1H-benzimidazol-2-yl)-2-methylphenyl]-N′-(2,3-dihydro-1,4-benzodioxin-6-ylcarbonyl)thiourea] | 42 ± 3.15 | 4
2 | O=C(NC(=S)Nc1cccc(-c2nc3ccccc3[nH]2)c1)c1ccc2c(c1)OCCO2 [Compound 2, N-[3-(1H-benzimidazol-2-yl)phenyl]-N′-(2,3-dihydro-1,4-benzodioxin-6-ylcarbonyl)thiourea] | 35 ± 5.23 | 49
